Source: ChEMBL document CHEMBL1146284, “Antitumor activity of the marine natural product dibromophakellstatin in vitro” (Bioorg Med Chem Lett, 2007)

Key:
Type in all cases: functional, cell-based
[1] = Antiproliferative activity against human CNXF 498NL cells
[2] = system: SF-268; experiment: Antiproliferative activity against human SF268 cells
[3] = Antiproliferative activity against human MEXF 394NL cells
[4] = Antiproliferative activity against human OVXF 899L cells
[5] = Antiproliferative activity against human LXF 529L cells
[6] = Antiproliferative activity against human UXF 1138L cells
[7] = Antiproliferative activity against human RXF 486NL cells […]
[8] = Antiproliferative activity against human LXF 629L cells
[9] = Antiproliferative activity against human BXF 1218L cells
[10] = Antiproliferative activity against human MEXF 462NL cells
[11] = Antiproliferative activity against human GXF 251L cells
[12] = Antiproliferative activity against human MEXF 276L cells; conditions: MEXF276L
[13] = system: PANC-1; experiment: Antiproliferative activity against human PANC1 cells
[14] = Antiproliferative activity against human OVXF 1619L cells
[15] = system: DU-145; experiment: Antiproliferative activity against human DU145 cells
[16] = Antiproliferative activity against human MEXF 514NL cells
[17] = Antiproliferative activity against human LXF 289L cells
[18] = Antiproliferative activity against human PC3M cells; conditions: PC-3M
[19] = system: OVCAR-3; experiment: Antiproliferative activity against human OVCAR-3 cells
[20] = Antiproliferative activity against human RXF 1781L cells
[21] = system: MCF7; experiment: Antiproliferative activity against human MCF7 cells
[22] = system: T-24; experiment: Antiproliferative activity against human T24 cells
[23] = Antiproliferative activity against human RXF 393NL cells
[24] = system: LNCaP; experiment: Antiproliferative activity against human LNCAP cells
[25] = Antiproliferative activity against human LXF 526L cells
[26] = Antiproliferative activity against human MEXF 520L cells
[27] = system: HCT-116; experiment: Antiproliferative activity against human HCT116 cells
[28] = system: HT-29; experiment: Antiproliferative activity against human HT29 cells
[29] = Antiproliferative activity against human PXF 1752L cells
[30] = Antiproliferative activity against human RXF 944NL cells
[31] = system: CWR22R; experiment: Antiproliferative activity against human 22RV1 cells
[32] = Antiproliferative activity against human MAXF 401NL cells
[33] = Antiproliferative activity against human PAXF 1675L cells
[34] = Antiproliferative activity against human HNXF 536L cells
[35] = Antiproliferative activity against human LXF 1121L cells
[36] = system: NCI-H460; experiment: Antiproliferative activity against human H460 cells

Question: With `O=C1N[C@H]2n3c(cc(Br)c3Br)C(=O)N3CCC[C@]23N1` as the molecule, how does the IC50 ([1]; cnxf 498nl) read?
Answer: > 10 µM

Question: What about the IC50 ([2]; sf-268) of the same molecule?
Answer: > 10 µM

Question: And the IC50 ([3]; mexf 394nl)?
Answer: > 10000 nM

Question: And the IC50 ([4]; ovxf 899l)?
Answer: > 10 µM

Question: And the IC50 ([5]; lxf 529l)?
Answer: > 10 µM

Question: For `O=C1NC2n3c(cc(Br)c3Br)C(=O)N3CCCC23N1` (racemic), which IC50 [6] is on record?
Answer: 1.21 µM

Question: What about the IC50 [7] of the same molecule?
Answer: > 10 µM

Question: And the IC50 [8]?
Answer: > 10 µM

Question: What about the IC50 [9] of the same molecule?
Answer: > 10 µM

Question: What about the IC50 ([1]; Homo sapiens, CNXF 498NL) of the same molecule?
Answer: 0.93 µM

Question: And the IC50 [10]?
Answer: > 10 µM

Question: What about the IC50 [11] of the same molecule?
Answer: > 10 µM

Question: And the IC50 ([2]; Homo sapiens, SF-268)?
Answer: 2.28 µM

Question: What about the IC50 [12] of the same molecule?
Answer: > 10 µM

Question: And the IC50 [13]?
Answer: 4.06 µM

Question: And the IC50 [14]?
Answer: 2.23 µM

Question: What about the IC50 ([3]; Homo sapiens, MEXF 394NL) of the same molecule?
Answer: 1370 nM

Question: What about the IC50 [15] of the same molecule?
Answer: > 10 µM

Question: What about the IC50 [16] of the same molecule?
Answer: 4.41 µM

Question: And the IC50 [17]?
Answer: > 10 µM

Question: And the IC50 [18]?
Answer: 2.42 µM

Question: What about the IC50 [19] of the same molecule?
Answer: > 10 µM

Question: And the IC50 [20]?
Answer: > 10 µM

Question: What about the IC50 [21] of the same molecule?
Answer: > 10 µM

Question: What about the IC50 [22] of the same molecule?
Answer: > 10 µM

Question: What about the IC50 [23] of the same molecule?
Answer: > 10 µM

Question: What about the IC50 [24] of the same molecule?
Answer: > 10 µM

Question: What about the IC50 [25] of the same molecule?
Answer: > 10 µM

Question: What about the IC50 [26] of the same molecule?
Answer: > 10 µM

Question: And the IC50 ([4]; Homo sapiens, OVXF 899L)?
Answer: 0.6 µM

Question: What about the IC50 [27] of the same molecule?
Answer: > 10 µM

Question: What about the IC50 [28] of the same molecule?
Answer: > 10 µM

Question: And the IC50 [29]?
Answer: > 10 µM

Question: What about the IC50 [30] of the same molecule?
Answer: > 10 µM

Question: And the IC50 [31]?
Answer: > 10 µM

Question: What about the IC50 ([5]; Homo sapiens, LXF 529L) of the same molecule?
Answer: 0.96 µM

Question: And the IC50 [32]?
Answer: > 10 µM

Question: What about the IC50 [33] of the same molecule?
Answer: > 10 µM

Question: And the IC50 [34]?
Answer: > 10 µM

Question: And the IC50 [35]?
Answer: > 10 µM

Question: What about the IC50 [36] of the same molecule?
Answer: > 10 µM

Question: Which results are given for `O=C1c2cc(Br)c(Br)n2C2C(Cl)(Cl)C23CCCN13` (racemic)?
Answer: IC50 ([1]; Homo sapiens, CNXF 498NL): 5.84 µM; IC50 ([2]; Homo sapiens, SF-268): 3.91 µM; IC50 ([3]; Homo sapiens, MEXF 394NL): 7870 nM; IC50 ([4]; Homo sapiens, OVXF 899L): 5.37 µM; IC50 ([5]; Homo sapiens, LXF 529L): 9.84 µM

Question: Which results are given for `CCOC(=O)N1C(=O)N(OS(=O)(=O)c2ccc(C)cc2)C23CCCN2C(=O)c2cc(Br)c(Br)n2C13` (racemic)?
Answer: IC50 [6]: 8.96 µM; IC50 [7]: > 10 µM; IC50 [8]: 6.52 µM; IC50 [9]: 7.42 µM; IC50 ([1]; Homo sapiens, CNXF 498NL): > 10 µM; IC50 [10]: > 10 µM; IC50 [11]: > 10 µM; IC50 ([2]; Homo sapiens, SF-268): 6.45 µM; IC50 [12]: 9.44 µM; IC50 [13]: 5 µM; IC50 [14]: 4.83 µM; IC50 ([3]; Homo sapiens, MEXF 394NL): 4020 nM; IC50 [15]: > 10 µM; IC50 [16]: > 10 µM; IC50 [17]: > 10 µM; IC50 [18]: 8.6 µM; IC50 [19]: > 10 µM; IC50 [20]: > 10 µM; IC50 [21]: > 10 µM; IC50 [22]: 9.98 µM; IC50 [23]: > 10 µM; IC50 [24]: > 10 µM; IC50 [25]: 7.96 µM; IC50 [26]: > 10 µM; IC50 ([4]; Homo sapiens, OVXF 899L): 8.89 µM; IC50 [27]: > 10 µM; IC50 [28]: > 10 µM; IC50 [29]: > 10 µM; IC50 [30]: 6.3 µM; IC50 [31]: > 5.92 µM; IC50 ([5]; Homo sapiens, LXF 529L): > 10 µM; IC50 [32]: 8.16 µM; IC50 [33]: > 10 µM; IC50 [34]: 7.24 µM; IC50 [35]: > 10 µM; IC50 [36]: > 10 µM

Question: Which IC50 ([1]; Homo sapiens, CNXF 498NL) does the source give for `CN1C(=O)c2cc(Br)c(Br)n2C2C1C2(Cl)Cl` (racemic) here?
Answer: > 10 µM

Question: What about the IC50 ([2]; Homo sapiens, SF-268) of the same molecule?
Answer: > 10 µM

Question: What about the IC50 ([3]; Homo sapiens, MEXF 394NL) of the same molecule?
Answer: 1350 nM

Question: What about the IC50 ([4]; Homo sapiens, OVXF 899L) of the same molecule?
Answer: > 10 µM

Question: What about the IC50 ([5]; Homo sapiens, LXF 529L) of the same molecule?
Answer: > 10 µM

Question: For `O=C1N[C@H]2n3c(cc(Br)c3Br)C(=O)N3CCC[C@]23N1` [DIBROMOPHAKELLSTATIN], which IC50 ([1]; cnxf 498nl) is on record?
Answer: 0.72 µM

Question: What about the IC50 ([2]; sf-268) of the same molecule?
Answer: 0.55 µM

Question: And the IC50 ([3]; mexf 394nl)?
Answer: 1350 nM

Question: And the IC50 ([4]; ovxf 899l)?
Answer: 0.05 µM

Question: What about the IC50 ([5]; lxf 529l) of the same molecule?
Answer: 1.62 µM
